Data reported in patent publication US7795226B2, “Control of radiation injury” (Biotempt B.V., priority 2006, dated 2010).

Experiments:
[1] = test system: LPS (E. coli 026:B6)-induced sepsis in BALB/c mice; experiment: endotoxin shock survival after early or late treatment with peptide; assay type: in vivo
Protocol: Mice used in sepsis or septic shock experiments: Female BALB/c mice of eight to twelve weeks of age were used for all experiments. The animals were bred in our facility under specific pathogen-free conditions according to the protocols described in the […] of European Laboratory Animal Science Associations (FELASA) Working group on Animal Health (Laboratory Animals 28:1-24, 1994).
Injection protocols: For the endotoxin model, BALB/c mice were injected i.p. with 150-300 μg LPS (E. coli 026:B6; Difco Lab., Detroit, Mich., USA). Control groups were treated with PBS i.p. only. To test the effect of peptides, they were dissolved in PBS and injected i.p. at predetermined points in time after LPS treatment.
A further set of septic shock experiments were set up to determine which of the peptides LQG, LQGV (SEQ ID NO:117), VLPALP (SEQ ID NO:140), VLPALPQ (SEQ ID NO:143), MTR, MTRV (SEQ ID NO:119), VVC or AQGV (SEQ ID NO:120) under study were most suited to be used early and/or late after or throughout the development of shock. For determining the percent of endotoxin shock survival after late or early treatment with peptide, BALB/c mice were injected i.p. with 300 μg LPS (E. coli 026:B6; Difco Lab., Detroit, Mich. USA), predetermined to be leading to 100% mortality in 48 hours without peptide treatment.
To evaluate the effect of peptide treatment at an early or late point in time of development of shock, mice were treated at two hours or at 24 hours after LPS injection by i.p. injection with test peptide at 5 mg/kg bodyweight. The mice were followed for 84 hours instead of for 48 hours in the earlier experiments.

[2] = test system: cell-cycle marker pCDG and auxin-responsive marker DR5::GUS; experiment: Arabidopsis thaliana seedling cell-cycle analysis (GUS markers); conditions: for identified as useful peptide for treatment of radiation injury from cell-cycle studies in plants and in vitro proliferation studies: Results from Examples 9 and 10
Method in brief: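 Four-day-old Ws-0 seedlings carrying GUS reporters (pCDG, DR5::GUS) were exposed to peptides at 5 mg/ml in PBS pH 8 for four and eight hours. GUS staining with 2 mM X-Gluc for 16 hours; distribution in root, root-hypocotyl transition zone and cotyledons assessed by DIC microscopy after chloral hydrate clearing.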

[3] = test system: spleen cell suspensions stimulated with anti-CD3 antibody; experiment: anti-CD3 induced proliferation of spleen cells from peptide-treated mice; assay type: cell-based; conditions: mice treated i.p. 0.5 or 5 mg/kg for one hour; 0, 12, 24 and 48 hours culture
Protocol: FIG. 4: A test on representative oligopeptides for their effect on proliferation during rapid growth of murine monocytes induced by CD3 when avid cell division occurs. Mice (n=5) were treated i.p. PBS, Nak4 (LQGV (SEQ ID NO:117)), Nak47 (LAGV (SEQ ID NO:121)), Nak46 (AQGV (SEQ ID NO:120)) provided by Ansynth BV, The Netherlands, or Nak46* (AQGV (SEQ ID NO:120) provided by Diosynth BV, The Netherlands). Mice were treated with 0.5 mg/kg of 5 mg/kg peptide for one hour, after which, spleens were isolated and spleen cell suspensions were made. Spleen cell suspensions were pooled per group and cultured in vitro (in three-fold) in the presence of PBS or of anti-CD3 antibody and proliferation was tested at 0, 12, 24 and 48 hours after culture.
To further study anti-cell-cycle activity of various oligopeptides, an in vitro experiment in […] of mice stimulated with anti-CD3 was performed. The aim was to test representative oligopeptides for their effect on proliferation during rapid growth induced by CD3 when avid cell division occurs. Mice (n=5) were treated i.p. PBS, Nak4 (LQGV (SEO ID NO:117)), Nak47 (LAGV (SEQ ID NO:121)), Nak46 (AQGV (SEQ ID NO:120)) provided by Ansynth BV, The Netherlands, or Nak46* (AQGV (SEQ ID NO:120) provided by Diosynth BV, The Netherlands). Mice were treated with 0.5 mg/kg or 5 mg/kg peptide for one hour after which spleens were isolated and spleen cell suspensions were made. Spleen cell suspensions were pooled per group and cultured in vitro (in three-fold) in the presence of PBS or of anti-CD3 antibody and proliferation was tested at 0, 12, 24 and 48 hours after culture.

[4] = 0 hours, peptide 5 mg/kg 2 hours after LPS
[5] = 0 hours, peptide 5 mg/kg 24 hours after LPS
[6] = 14 hours, peptide 5 mg/kg 2 hours after LPS
[7] = 14 hours, peptide 5 mg/kg 24 hours after LPS
[8] = 24 hours, peptide 5 mg/kg 2 hours after LPS
[9] = 24 hours, peptide 5 mg/kg 24 hours after LPS
[10] = 48 hours, peptide 5 mg/kg 2 hours after LPS
[11] = 48 hours, peptide 5 mg/kg 24 hours after LPS
[12] = 84 hours, peptide 5 mg/kg 2 hours after LPS
[13] = 84 hours, peptide 5 mg/kg 24 hours after LPS
[14] = 5 mg/kg given both early (2 hours) or late (24 hours)

| Substance | % Survival [1, 4] | % Survival [1, 5] | % Survival [1, 6] | % Survival [1, 7] | % Survival [1, 8] | % Survival [1, 9] | % Survival [1, 10] | % Survival [1, 11] | % Survival [1, 12] | % Survival [1, 13] | identified as useful peptide for treatment of radiation injury from cell-cycle studies in plants and in vitro proliferation studies [2] | proliferation of anti-CD3 stimulated spleen cells (in words) [3] | effect on cell-cycle marker (pCDG) and auxin-responsive marker (DR5::GUS) (in words) ([2]; seedlings incubated four and eight hours, 5 mg/ml peptide solution) | clinical signs of shock at 84 hours after LPS-treatment (in words) [1, 14] | survival at 84 hours after LPS-treatment [1, 14] |
| --- | --- | --- | --- | --- | --- | --- | --- | --- | --- | --- | --- | --- | --- | --- | --- |
| LQG | 100% | 100% | 100% | 100% | 100% | 100% | 0% | 0% | 0% | 0% |  |  |  |  |  |
| VLPALPQ (septamer peptide) | 100% | 100% | 100% | 100% | 100% | 100% | 0% | 100% | 0% | 100% |  |  |  |  |  |
| MTRV | 100% | 100% | 100% | 100% | 100% | 100% | 50% | 100% | 30% | 100% | useful |  |  |  |  |
| LAGV (tetramer peptide) |  |  |  |  |  |  |  |  |  |  | useful | reduction of proliferation |  |  |  |
| LQGV | 100% | 100% | 100% | 100% | 100% | 100% | 100% | 0% | 100% | 0% | useful | reduction of proliferation | clear effect on the tested markers |  |  |
| VLPALP (hexamer peptide) | 100% | 100% | 100% | 100% | 100% | 100% | 100% | 0% | 100% | 0% | useful |  |  |  |  |
| MTR | 100% | 100% | 100% | 100% | 100% | 100% | 100% | 100% | 50% | 100% |  |  |  |  |  |
| AQGV | 100% | 100% | 100% | 100% | 100% | 100% | 100% | 100% | 100% | 100% | useful | reduction of proliferation |  | no remaining clinical signs of shock | 100% |
